# ChEMBL document CHEMBL1129635, “Evaluation of selected chemotypes in coupled cellular and molecular target-based screens identifies novel HIV-1 zinc finger inhibitors” (J Med Chem, 1996)
# Active and inactive are the calls of the source. The calls are words filed in the database; no cut-off is given here.
# What was measured:
# [1] = test system: Human immunodeficiency virus 1; assay: Inhibition of HIV-1 replication in human T-cell by using XTT assay.; format: functional
# [2] = test system: Human immunodeficiency virus 1; assay: Tested against zinc finger of the recombinant HIV-1 p7NC protein by using Trp residue for fluorometric measurements; format: functional
# [3] = test system: Human immunodeficiency virus 1; assay: Tested for cytoprotection against production of HIV-1 p24.; format: functional, organism-based
# [4] = test system: Human immunodeficiency virus 1; assay: Compound was tested for inhibition of HIV-1 replication in human T-cell by using XTT assay; Moderately active; format: functional, organism-based
# [5] = test system: Human immunodeficiency virus 1; assay: Effective concentration required for 50% production of p24 production.; format: functional, organism-based
# [6] = test system: Human immunodeficiency virus 1; assay: Tested against zinc finger of the recombinant HIV-1 p7NC toluenesulfonamide) residue for fluorometric measurements; format: functional
# [7] = test system: Human immunodeficiency virus 1; assay: Compound was tested for effective concentration required for 50% production of p24 production; NA = Not active; format: functional, organism-based
# T-cell line = assay: Compound was tested for inhibition of HIV-1 replication in human T-cell by using XTT assay; Active; format: functional, cell-based
IC50 [3],EC50 [5],EC50 [7],SMILES,TI50 [1],Decrease in RFU [2],Activity [4],increase in RFU [6],Activity (T-cell line)
97 µM,> 100 µM,–,Nc1ccc(S(N)(=O)=O)cc1SSc1cc(S(N)(=O)=O)ccc1N,>14.2,52.1%,Weak activity,26%,–
> 100 µM,> 100 µM,–,O=C(O)Cc1ccc(SSc2ccc(CC(=O)O)cc2)cc1,>8.7,51.5%,Weak activity,10.6%,–
100 µM,> 100 µM,–,Nc1cc(S(N)(=O)=O)ccc1SSc1ccc(S(N)(=O)=O)cc1N,14.9,81.8%,Weak activity,24.4%,–
> 100 µM,> 100 µM,–,CC(=O)NC1CN=C(SSC2=NCC(NC(C)=O)S2)S1 (stereo not given),>5.3,77.8%,Weak activity,8%,–
> 100 µM,> 100 µM,–,NC(=O)CSSCC(N)=O,6.5,2.1%,Weak activity,1.2%,–
> 100 µM,> 100 µM,–,Nc1cc(C(=O)O)ccc1SSc1ccc(C(=O)O)cc1N,>6.4,79.3%,Weak activity,10.9%,–
> 100 µM,7.5 µM,–,COc1cc(SSc2cc(OC)cc([N+](=O)[O-])c2N)c(N)c([N+](=O)[O-])c1,8.5,80.5%,Weak activity,0%,–
> 100 µM,> 100 µM,–,CC(=O)NCCSS(=O)(=O)CCCCS(=O)(=O)SCCNC(C)=O,>1.6,82.5%,Weak activity,32.8%,–
96 µM,21 µM,–,NNC(=O)c1ccccc1SSc1ccccc1C(=O)NN,5,80.9%,Weak activity,28.5%,–
> 100 µM,37.2 µM,–,O=S(=O)(SC1=NCCN1)c1ccccc1,4.3,76.1%,Weak activity,15.7%,–

# More lines, now with the values behind:
SMILES,IC50 [3],EC50 [5],EC50 [7],TI50 [1],Decrease in RFU [2],Activity [4],increase in RFU [6],Activity (T-cell line)
O=C(O)c1cccc(SS(=O)(=O)c2cccc(C(=O)O)c2)c1,> 100 µM,71 µM,–,13.7,91.2%,Weak activity,21.1%,–
COS(=O)CCOC(=O)c1ccccc1SSc1ccccc1C(=O)OCCS(=O)OC (stereo not given),–,–,Not Active,>2.1,–,Weak activity,–,–
CC1(C)CC2=NC(SSC3=C(C#N)C(c4ccc(F)cc4)C4=C(O)CC(C)(C)CC4=N3)=C(C#N)C(c3ccc(F)cc3)C2=C(O)C1 (stereo not given),> 100 µM,> 100 µM,–,3.2,78.1%,Weak activity,0.3%,–
COC(=S)SSC(=S)N(CC/N=C(/S)SSC(=S)OC)CC/N=C(\S)SSC(=S)OC,> 100 µM,> 100 µM,–,2.6,37.7%,Weak activity,10.6%,–
Cc1cc(S(=O)(=O)C2=NC(Nc3ccccc3)NN2)c(SSc2cc(Cl)c(C)cc2S(=O)(=O)C2=NC(Nc3ccccc3)NN2)cc1Cl (stereo not given),> 100 µM,80 µM,–,15.7,92.1%,Weak activity,1.5%,–
Cc1cc(C)c(C(=O)O)c(SSc2cc(C)cc(C)c2C(=O)O)c1,–,–,Not Active,2.7,–,Weak activity,–,–
NS(=O)(=O)c1ccc(SSc2ccc(S(N)(=O)=O)cc2[N+](=O)[O-])c([N+](=O)[O-])c1,–,–,–,>5.8,–,Weak activity,–,–
CC1(C)CC2=NC(SSC3=C(C#N)C(c4ccc(Br)cc4)C4=C(O)CC(C)(C)CC4=N3)=C(C#N)C(c3ccc(Br)cc3)C2=C(O)C1 (stereo not given),> 100 µM,> 100 µM,–,3.4,24.8%,Weak activity,0.3%,–
Cc1cc(C(=O)O)c(C)cc1SSc1cc(C)c(C(=O)O)cc1C,> 100 µM,32 µM,–,3.6,76.1%,Weak activity,15.7%,–
N=C(N)Nc1ccccc1SSc1ccccc1N=C(N)N,> 100 µM,10 µM,–,32,31.3%,–,1.6%,Active
O=C(N/N=C\c1ccc(Cl)cc1Cl)c1ccccc1SSc1ccccc1C(=O)N/N=C\c1ccc(Cl)cc1Cl,> 100 µM,3.5 µM,–,>15.9,31.3%,–,1.6%,Active
O=C(O)c1ccccc1SSc1ccccc1C(=O)O,> 100 µM,57.5 µM,–,>1.7,6%,Weak activity,9.8%,–
CNCCSS(=O)(=O)CCNC,–,–,–,>1.8,–,Weak activity,–,–
O=C(O)c1ccc(SSc2ccc(C(=O)O)cc2)cc1,> 100 µM,> 100 µM,–,>1.6,62.5%,Weak activity,22.3%,–
